Results taken from the supplement of paper PMC4862054.

System: DU-4475
Assay: normalised response (% of control), CellTiter-Glo; higher = more viable cells (100 = DMSO, 0 = benzethonium chloride kill control)
Conditions: incubation time: 72 h
Summary of the method: (§1)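 Normalised signals at single concentrations make up the values. They come from breast cancer cell lines seeded (20 µl suspension) into 384-well plates with compound at 5 concentrations in 10-fold steps over a compound-specific 10,000-fold range, incubated 72 h, and read for CellTox Green fluorescence then CellTiter-Glo luminescence. Each plate was normalised to 0.1 % DMSO (100) and a positive kill control (0).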

Compound	normalised response [%]
Cc1c(CN2CCN(C(=O)[C@H](C)O)CC2)sc2c(N3CCOCC3)nc(-c3cnc(N)nc3)nc12 [GDC-0980] (1 nM)	104
Cc1c(CN2CCN(C(=O)[C@H](C)O)CC2)sc2c(N3CCOCC3)nc(-c3cnc(N)nc3)nc12 [GDC-0980] (10 nM)	101
Cc1cccc(-c2nn3c(c2-c2ccnc4ccc(C(N)=O)cc24)CCC3)n1 [Galunisertib] (0.1 nM)	105
Nc1cccc2c1CN(C1CCC(=O)NC1=O)C2=O (centres undefined) [Lenalidomide] (1 nM)	106
Nc1cccc2c1CN(C1CCC(=O)NC1=O)C2=O (centres undefined) [Lenalidomide] (10 nM)	102
C[C@]12O[C@H](C[C@]1(O)CO)n1c3ccccc3c3c4c(c5c6ccccc6n2c5c31)CNC4=O [Lestaurtinib] (0.1 nM)	94.8
O=C1c2c(O)ccc(O)c2C(=O)c2c(NCCNCCO)ccc(NCCNCCO)c21 [Mitoxantrone] (0.1 nM)	94.2
O=C1c2c(O)ccc(O)c2C(=O)c2c(NCCNCCO)ccc(NCCNCCO)c21 [Mitoxantrone] (1 nM)	99.1
Nc1ccccc1NC(=O)c1ccc(CNc2nccc(-c3cccnc3)n2)cc1 [Mocetinostat] (1 nM)	105
COc1nc(N)nc2c1ncn2[C@@H]1O[C@H](CO)[C@@H](O)[C@@H]1O [Nelarabine] (1 nM)	89.5
COc1nc(N)nc2c1ncn2[C@@H]1O[C@H](CO)[C@@H](O)[C@@H]1O [Nelarabine] (10 nM)	98
Cc1ccc(Nc2nccc(N(C)c3ccc4c(C)n(C)nc4c3)n2)cc1S(N)(=O)=O [Pazopanib] (1 nM)	109
CS(=O)(=O)N1CCN(Cc2cc3nc(-c4cccc5[nH]ncc45)nc(N4CCOCC4)c3s2)CC1 [Pictilisib] (10 nM)	102
O=C(NC[C@H](O)CO)c1ccncc1Nc1ccc(I)cc1F [Pimasertib] (1 nM)	99.9
O=C(CCBr)N1CCN(C(=O)CCBr)CC1 [Pipobroman] (1 nM)	106
O=C(CCBr)N1CCN(C(=O)CCBr)CC1 [Pipobroman] (10 nM)	106
c1cc(CN2CCCNCCNCCCNCC2)ccc1CN1CCCNCCNCCCNCC1 [Plerixafor] (1 nM)	91
C[C@]12C=CC(=O)C=C1CC[C@@H]1[C@@H]2[C@@H](O)C[C@@]2(C)[C@H]1CC[C@]2(O)C(=O)CO [Prednisolone] (1 nM)	108
C[C@]12C=CC(=O)C=C1CC[C@@H]1[C@@H]2[C@@H](O)C[C@@]2(C)[C@H]1CC[C@]2(O)C(=O)CO [Prednisolone] (10 nM)	106
Cn1cc(CNCC2CCN(c3ncc(C(=O)NO)cn3)CC2)c2ccccc21 [Quisinostat] (0.1 nM)	103
Cn1cc(CNCC2CCN(c3ncc(C(=O)NO)cn3)CC2)c2ccccc21 [Quisinostat] (1 nM)	102

System: MFM-223
Assay: as above
Conditions: incubation time: 72 h
Summary of the method: as §1

Compound	normalised response [%]
Cc1c(CN2CCN(C(=O)[C@H](C)O)CC2)sc2c(N3CCOCC3)nc(-c3cnc(N)nc3)nc12 [GDC-0980] (1 nM)	98.8
Cc1c(CN2CCN(C(=O)[C@H](C)O)CC2)sc2c(N3CCOCC3)nc(-c3cnc(N)nc3)nc12 [GDC-0980] (10 nM)	106
Cc1cccc(-c2nn3c(c2-c2ccnc4ccc(C(N)=O)cc24)CCC3)n1 [Galunisertib] (0.1 nM)	108
Nc1cccc2c1CN(C1CCC(=O)NC1=O)C2=O (centres undefined) [Lenalidomide] (1 nM)	97.3
Nc1cccc2c1CN(C1CCC(=O)NC1=O)C2=O (centres undefined) [Lenalidomide] (10 nM)	95.8
C[C@]12O[C@H](C[C@]1(O)CO)n1c3ccccc3c3c4c(c5c6ccccc6n2c5c31)CNC4=O [Lestaurtinib] (0.1 nM)	96.7
O=C1c2c(O)ccc(O)c2C(=O)c2c(NCCNCCO)ccc(NCCNCCO)c21 [Mitoxantrone] (0.1 nM)	97.3
O=C1c2c(O)ccc(O)c2C(=O)c2c(NCCNCCO)ccc(NCCNCCO)c21 [Mitoxantrone] (1 nM)	106
Nc1ccccc1NC(=O)c1ccc(CNc2nccc(-c3cccnc3)n2)cc1 [Mocetinostat] (1 nM)	98.1
COc1nc(N)nc2c1ncn2[C@@H]1O[C@H](CO)[C@@H](O)[C@@H]1O [Nelarabine] (1 nM)	88.2
COc1nc(N)nc2c1ncn2[C@@H]1O[C@H](CO)[C@@H](O)[C@@H]1O [Nelarabine] (10 nM)	88
Cc1ccc(Nc2nccc(N(C)c3ccc4c(C)n(C)nc4c3)n2)cc1S(N)(=O)=O [Pazopanib] (1 nM)	99.3
CS(=O)(=O)N1CCN(Cc2cc3nc(-c4cccc5[nH]ncc45)nc(N4CCOCC4)c3s2)CC1 [Pictilisib] (10 nM)	96.7
O=C(NC[C@H](O)CO)c1ccncc1Nc1ccc(I)cc1F [Pimasertib] (1 nM)	97.6
O=C(CCBr)N1CCN(C(=O)CCBr)CC1 [Pipobroman] (1 nM)	99.1
O=C(CCBr)N1CCN(C(=O)CCBr)CC1 [Pipobroman] (10 nM)	101
c1cc(CN2CCCNCCNCCCNCC2)ccc1CN1CCCNCCNCCCNCC1 [Plerixafor] (1 nM)	85.5
C[C@]12C=CC(=O)C=C1CC[C@@H]1[C@@H]2[C@@H](O)C[C@@]2(C)[C@H]1CC[C@]2(O)C(=O)CO [Prednisolone] (1 nM)	102
C[C@]12C=CC(=O)C=C1CC[C@@H]1[C@@H]2[C@@H](O)C[C@@]2(C)[C@H]1CC[C@]2(O)C(=O)CO [Prednisolone] (10 nM)	104
Cn1cc(CNCC2CCN(c3ncc(C(=O)NO)cn3)CC2)c2ccccc21 [Quisinostat] (0.1 nM)	104
Cn1cc(CNCC2CCN(c3ncc(C(=O)NO)cn3)CC2)c2ccccc21 [Quisinostat] (1 nM)	104

System: CAL-85-1
Assay: as above
Conditions: incubation time: 72 h
Summary of the method: as §1

Compound	normalised response [%]
Cc1c(CN2CCN(C(=O)[C@H](C)O)CC2)sc2c(N3CCOCC3)nc(-c3cnc(N)nc3)nc12 [GDC-0980] (1 nM)	105
Cc1c(CN2CCN(C(=O)[C@H](C)O)CC2)sc2c(N3CCOCC3)nc(-c3cnc(N)nc3)nc12 [GDC-0980] (10 nM)	96.9
Cc1cccc(-c2nn3c(c2-c2ccnc4ccc(C(N)=O)cc24)CCC3)n1 [Galunisertib] (0.1 nM)	98.1
Nc1cccc2c1CN(C1CCC(=O)NC1=O)C2=O (centres undefined) [Lenalidomide] (1 nM)	108
Nc1cccc2c1CN(C1CCC(=O)NC1=O)C2=O (centres undefined) [Lenalidomide] (10 nM)	106
C[C@]12O[C@H](C[C@]1(O)CO)n1c3ccccc3c3c4c(c5c6ccccc6n2c5c31)CNC4=O [Lestaurtinib] (0.1 nM)	103
O=C1c2c(O)ccc(O)c2C(=O)c2c(NCCNCCO)ccc(NCCNCCO)c21 [Mitoxantrone] (0.1 nM)	101
O=C1c2c(O)ccc(O)c2C(=O)c2c(NCCNCCO)ccc(NCCNCCO)c21 [Mitoxantrone] (1 nM)	100
Nc1ccccc1NC(=O)c1ccc(CNc2nccc(-c3cccnc3)n2)cc1 [Mocetinostat] (1 nM)	101
COc1nc(N)nc2c1ncn2[C@@H]1O[C@H](CO)[C@@H](O)[C@@H]1O [Nelarabine] (1 nM)	94.9
COc1nc(N)nc2c1ncn2[C@@H]1O[C@H](CO)[C@@H](O)[C@@H]1O [Nelarabine] (10 nM)	96.4
Cc1ccc(Nc2nccc(N(C)c3ccc4c(C)n(C)nc4c3)n2)cc1S(N)(=O)=O [Pazopanib] (1 nM)	110
CS(=O)(=O)N1CCN(Cc2cc3nc(-c4cccc5[nH]ncc45)nc(N4CCOCC4)c3s2)CC1 [Pictilisib] (10 nM)	103
O=C(NC[C@H](O)CO)c1ccncc1Nc1ccc(I)cc1F [Pimasertib] (1 nM)	97.9
O=C(CCBr)N1CCN(C(=O)CCBr)CC1 [Pipobroman] (1 nM)	103
O=C(CCBr)N1CCN(C(=O)CCBr)CC1 [Pipobroman] (10 nM)	102
c1cc(CN2CCCNCCNCCCNCC2)ccc1CN1CCCNCCNCCCNCC1 [Plerixafor] (1 nM)	92.3
C[C@]12C=CC(=O)C=C1CC[C@@H]1[C@@H]2[C@@H](O)C[C@@]2(C)[C@H]1CC[C@]2(O)C(=O)CO [Prednisolone] (1 nM)	96.9
C[C@]12C=CC(=O)C=C1CC[C@@H]1[C@@H]2[C@@H](O)C[C@@]2(C)[C@H]1CC[C@]2(O)C(=O)CO [Prednisolone] (10 nM)	102
Cn1cc(CNCC2CCN(c3ncc(C(=O)NO)cn3)CC2)c2ccccc21 [Quisinostat] (0.1 nM)	107
Cn1cc(CNCC2CCN(c3ncc(C(=O)NO)cn3)CC2)c2ccccc21 [Quisinostat] (1 nM)	97.7

System: SK-BR-3
Assay: as above
Conditions: incubation time: 72 h
Summary of the method: as §1

Compound	normalised response [%]
Cc1c(CN2CCN(C(=O)[C@H](C)O)CC2)sc2c(N3CCOCC3)nc(-c3cnc(N)nc3)nc12 [GDC-0980] (1 nM)	105
Cc1c(CN2CCN(C(=O)[C@H](C)O)CC2)sc2c(N3CCOCC3)nc(-c3cnc(N)nc3)nc12 [GDC-0980] (10 nM)	108
Cc1cccc(-c2nn3c(c2-c2ccnc4ccc(C(N)=O)cc24)CCC3)n1 [Galunisertib] (0.1 nM)	109
Nc1cccc2c1CN(C1CCC(=O)NC1=O)C2=O (centres undefined) [Lenalidomide] (1 nM)	107
Nc1cccc2c1CN(C1CCC(=O)NC1=O)C2=O (centres undefined) [Lenalidomide] (10 nM)	107
C[C@]12O[C@H](C[C@]1(O)CO)n1c3ccccc3c3c4c(c5c6ccccc6n2c5c31)CNC4=O [Lestaurtinib] (0.1 nM)	89.2
O=C1c2c(O)ccc(O)c2C(=O)c2c(NCCNCCO)ccc(NCCNCCO)c21 [Mitoxantrone] (0.1 nM)	98
O=C1c2c(O)ccc(O)c2C(=O)c2c(NCCNCCO)ccc(NCCNCCO)c21 [Mitoxantrone] (1 nM)	100
Nc1ccccc1NC(=O)c1ccc(CNc2nccc(-c3cccnc3)n2)cc1 [Mocetinostat] (1 nM)	103
COc1nc(N)nc2c1ncn2[C@@H]1O[C@H](CO)[C@@H](O)[C@@H]1O [Nelarabine] (1 nM)	86.1
COc1nc(N)nc2c1ncn2[C@@H]1O[C@H](CO)[C@@H](O)[C@@H]1O [Nelarabine] (10 nM)	70.6
Cc1ccc(Nc2nccc(N(C)c3ccc4c(C)n(C)nc4c3)n2)cc1S(N)(=O)=O [Pazopanib] (1 nM)	109
CS(=O)(=O)N1CCN(Cc2cc3nc(-c4cccc5[nH]ncc45)nc(N4CCOCC4)c3s2)CC1 [Pictilisib] (10 nM)	105
O=C(NC[C@H](O)CO)c1ccncc1Nc1ccc(I)cc1F [Pimasertib] (1 nM)	98.5
O=C(CCBr)N1CCN(C(=O)CCBr)CC1 [Pipobroman] (1 nM)	115
O=C(CCBr)N1CCN(C(=O)CCBr)CC1 [Pipobroman] (10 nM)	107
c1cc(CN2CCCNCCNCCCNCC2)ccc1CN1CCCNCCNCCCNCC1 [Plerixafor] (1 nM)	81.3
C[C@]12C=CC(=O)C=C1CC[C@@H]1[C@@H]2[C@@H](O)C[C@@]2(C)[C@H]1CC[C@]2(O)C(=O)CO [Prednisolone] (1 nM)	110
C[C@]12C=CC(=O)C=C1CC[C@@H]1[C@@H]2[C@@H](O)C[C@@]2(C)[C@H]1CC[C@]2(O)C(=O)CO [Prednisolone] (10 nM)	112
Cn1cc(CNCC2CCN(c3ncc(C(=O)NO)cn3)CC2)c2ccccc21 [Quisinostat] (0.1 nM)	108
Cn1cc(CNCC2CCN(c3ncc(C(=O)NO)cn3)CC2)c2ccccc21 [Quisinostat] (1 nM)	102

System: CAL-148
Assay: as above
Conditions: incubation time: 72 h
Summary of the method: as §1

Compound	normalised response [%]
Cc1c(CN2CCN(C(=O)[C@H](C)O)CC2)sc2c(N3CCOCC3)nc(-c3cnc(N)nc3)nc12 [GDC-0980] (1 nM)	112
Cc1c(CN2CCN(C(=O)[C@H](C)O)CC2)sc2c(N3CCOCC3)nc(-c3cnc(N)nc3)nc12 [GDC-0980] (10 nM)	117
Cc1cccc(-c2nn3c(c2-c2ccnc4ccc(C(N)=O)cc24)CCC3)n1 [Galunisertib] (0.1 nM)	112
Nc1cccc2c1CN(C1CCC(=O)NC1=O)C2=O (centres undefined) [Lenalidomide] (1 nM)	97.8
Nc1cccc2c1CN(C1CCC(=O)NC1=O)C2=O (centres undefined) [Lenalidomide] (10 nM)	99.7
C[C@]12O[C@H](C[C@]1(O)CO)n1c3ccccc3c3c4c(c5c6ccccc6n2c5c31)CNC4=O [Lestaurtinib] (0.1 nM)	90.7
O=C1c2c(O)ccc(O)c2C(=O)c2c(NCCNCCO)ccc(NCCNCCO)c21 [Mitoxantrone] (0.1 nM)	94.2
O=C1c2c(O)ccc(O)c2C(=O)c2c(NCCNCCO)ccc(NCCNCCO)c21 [Mitoxantrone] (1 nM)	101
Nc1ccccc1NC(=O)c1ccc(CNc2nccc(-c3cccnc3)n2)cc1 [Mocetinostat] (1 nM)	109
COc1nc(N)nc2c1ncn2[C@@H]1O[C@H](CO)[C@@H](O)[C@@H]1O [Nelarabine] (1 nM)	84.1
COc1nc(N)nc2c1ncn2[C@@H]1O[C@H](CO)[C@@H](O)[C@@H]1O [Nelarabine] (10 nM)	81.3
Cc1ccc(Nc2nccc(N(C)c3ccc4c(C)n(C)nc4c3)n2)cc1S(N)(=O)=O [Pazopanib] (1 nM)	108
CS(=O)(=O)N1CCN(Cc2cc3nc(-c4cccc5[nH]ncc45)nc(N4CCOCC4)c3s2)CC1 [Pictilisib] (10 nM)	105
O=C(NC[C@H](O)CO)c1ccncc1Nc1ccc(I)cc1F [Pimasertib] (1 nM)	97.7
O=C(CCBr)N1CCN(C(=O)CCBr)CC1 [Pipobroman] (1 nM)	111
